Assay results taken from US6995283B2, “Benzophenones as inhibitors of reverse transcriptase” (priority 2001, dated 2006).

System: HIV-1 (strain IIIIB)
Experiment: MT4 cell assay (propidium iodide readout)
Type: cell-based
Settings: Human immunodeficiency virus 1, control and standard, MT4 cells, read-out: expected range of IC50 values
Protocol: Antiviral HIV activity and compound-induced cytotoxicity were measured in parallel by means of a propidium iodide based procedure in the human T-cell lymphotropic virus transformed cell line MT4. Aliquots of the test compounds were serially diluted in medium (RPMI 1640, 10% fetal calf serum (FCS), and gentamycin) in 96-well plates (Costar 3598) using a Cetus Pro/Pette. Exponentially growing MT4 cells were harvested and centrifuged at 1000 rpm for 10 min in a Jouan centrifuge (model CR 4 12). Cell pellets were resuspended in fresh medium (RPMI 1640, 20% FCS, 20% IL-2, and gentamycin) to a density of 5×10^5 cells/ml. […] The plates were analyzed in an automated assay instrument (Screen Machine, Idexx Laboratories). […] The assay makes use of a propidium iodide dye to estimate the DNA content of each well. • B. For MTS readout, 20 μl CellTiter 96 AQ One Solution reagent (Promega #G3582) was added to each well. At 75 minutes following the addition of MTS reagent, absobance was read at 492 nm using a Tecan Sunrise 96-well plate reader. […]
For each assay plate, the results (relative fluorescence units, rfU, or OD values) of wells containing uninfected cells or infected cells with no compound were averaged, respectively. […] Percent of cells remaining is determined by the following formula: Percent of cells remaining=(compound-treated uninfected cells, rfU, or OD values/untreated uninfected cells)×100. […]

## Cc1cn([C@H]2C[C@H](N=[N+]=[N-])[C@@H](CO)O2)c(=O)[nH]c1=O [3′-azido-3′-deoxythymidine]
  IC50: 40 to 120 nM
